Read-outs that look alike come from different tables or passages of the source.
How the values were obtained:
Link_TSG6 [1] = molecular target: T1, Link_TSG6 (Homo sapiens, UniProt P98066); assay: ITC of HA oligosaccharides binding to Link_TSG6; conditions: for N / ΔG / ΔH / −TΔS / Kd: 25 °C, 5 mM MES pH 6.0, mean ± SEM; for N: 0.029 mM Link_TSG6, 0.29 mM oligosaccharide; for N / Kd: four titrations; for Kd: read-out: KD; for % Binding affinity Link_TSG6: Table 6, relative to unmodified oligosaccharide of the same length, by ITC
T1 construct: made in house
Protocol: ITC experiments were performed using a MicroCal PEAQ-ITC instrument (Malvern Instruments). Oligosaccharide stock solutions were prepared at 0.29 mM (in 5 mM MES, pH 6.0) and injected (18 × 2 μl with 120 s spacing between injections) into the cell containing ∼200 μl Link_TSG6 (0.029 mM) in matched buffer at 25 °C. Data were fit to a one site binding model, after subtracting the heats from the last three injections to account for heat of dilution of the oligosaccharide into buffer. Each oligosaccharide was analyzed in four independently performed ITC experiments.

hisCD44_HABD^20–169 = molecular target: T2, hisCD44_HABD^20–169 (Homo sapiens, UniProt P16070); assay: MST of HA oligosaccharides binding to hisCD44_HABD^20–169; conditions: for % Binding affinity hisCD44_HABD^20–169: Table 6, relative to unmodified oligosaccharide of the same length, by MST
T2 construct: A novel construct consisting of residues 20 to 169 of human CD44 and an N-terminal six-histidine tag; made in house
Protocol: For hisCD44_HABD^20–169, interactions with HA oligosaccharides were assessed using MST. Protein (200 nM) was labeled with 5 μM red-Tris-NTA-650 dye following the manufacturer’s instructions in 10 mM Hepes, pH 7.4, 150 mM NaCl, 0.05% (v/v) Tween-20 (interaction buffer). Stock solutions of HA oligosaccharides (5 mM in interaction buffer) were serially diluted (1:1 in interaction buffer) 16 times before each concentration was mixed with an equal volume of labeled protein (10 nM final concentration hisCD44_HABD^20–169). Samples were loaded into standard glass capillaries (NanoTemper) and thermophoresis measured at 25 °C (with active temperature control) using a Monolith NT.115pico instrument (NanoTemper) running NT Control software (version 1.0.1). All experiments were performed in triplicate and data analyzed with the “KD fit model” in the NT Analysis software (version 2.0.2).

recombinant human TSG-6 = molecular target: T3, recombinant human TSG-6 (Homo sapiens, UniProt P19827+P98066); assay: In vitro HC-transfer assay (IαI + rhTSG-6, Western blot anti-HC1); assay type: biochemical; conditions: 15 μM HA, 1.8 μM IαI, rhTSG-6, 2 h at 37 °C; for Substrate for HC transfer: Table 6
T3 construct: TSG-6–mediated HC-transfer assays (using full-length TSG6); purchased R&D Systems
Protocol: Covalent transfer of HC from IαI onto unmodified and chemically modified HA oligosaccharides was analyzed using the assay described previously ([26]). All reactions were performed using a buffer of 20 mM Hepes, pH 7.5, 150 mM NaCl, and 5 mM MgCl2. In a “standard” assay, HA oligosaccharides were at 15 μM, human IαI ([97]) 1.8 at μM (based on a molecular weight of 180 kDa), and recombinant human TSG-6 (R&D Systems) at 2.8 μM (based on a molecular weight of 35 kDa). Reaction mixtures were analyzed by SDS-PAGE using 4 to 12% bis-tris polyacrylamide gels (Invitrogen). For Western blot analysis, proteins were transferred onto nitrocellulose membrane (GE Healthcare) and incubated with antisera against HC1 (CP7, 1:10,000; ([98])). Bound primary antibody was detected using goat-anti-rabbit IgG conjugated to IR dye (LI-COR Biosciences) and blots imaged using an Odyssey Clx near-IR fluorescence imaging system (LICOR Biosciences).

Link_TSG6 [2] = tested on: Link_TSG6; parameters: method as in PMID 24403066; conditions: cited from earlier work
[3] = Table 5, MST, 10 mM Hepes pH 7.5, 150 mM NaCl, 0.05% Tween-20, 25 °C, mean ± SD, three titrations, read-out: KD

T2 sequence (P16070 20-169): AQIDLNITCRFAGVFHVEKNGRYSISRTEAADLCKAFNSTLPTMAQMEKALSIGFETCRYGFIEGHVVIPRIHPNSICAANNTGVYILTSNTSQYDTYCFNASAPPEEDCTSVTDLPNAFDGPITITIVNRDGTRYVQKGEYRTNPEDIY
T1 sequence (P98066 36-129 limits assumed): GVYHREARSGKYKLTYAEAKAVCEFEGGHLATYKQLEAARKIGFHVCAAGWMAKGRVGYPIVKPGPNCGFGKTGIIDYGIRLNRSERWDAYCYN
T3 sequence (P98066 18-277): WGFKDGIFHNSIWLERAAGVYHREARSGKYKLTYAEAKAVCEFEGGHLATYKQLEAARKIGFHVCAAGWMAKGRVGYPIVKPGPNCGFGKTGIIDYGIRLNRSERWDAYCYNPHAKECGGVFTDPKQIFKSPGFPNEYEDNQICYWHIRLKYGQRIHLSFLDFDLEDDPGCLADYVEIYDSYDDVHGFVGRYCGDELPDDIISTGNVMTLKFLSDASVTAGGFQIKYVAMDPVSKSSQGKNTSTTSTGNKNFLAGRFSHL
T3 sequence (P19827 35-672 limits assumed): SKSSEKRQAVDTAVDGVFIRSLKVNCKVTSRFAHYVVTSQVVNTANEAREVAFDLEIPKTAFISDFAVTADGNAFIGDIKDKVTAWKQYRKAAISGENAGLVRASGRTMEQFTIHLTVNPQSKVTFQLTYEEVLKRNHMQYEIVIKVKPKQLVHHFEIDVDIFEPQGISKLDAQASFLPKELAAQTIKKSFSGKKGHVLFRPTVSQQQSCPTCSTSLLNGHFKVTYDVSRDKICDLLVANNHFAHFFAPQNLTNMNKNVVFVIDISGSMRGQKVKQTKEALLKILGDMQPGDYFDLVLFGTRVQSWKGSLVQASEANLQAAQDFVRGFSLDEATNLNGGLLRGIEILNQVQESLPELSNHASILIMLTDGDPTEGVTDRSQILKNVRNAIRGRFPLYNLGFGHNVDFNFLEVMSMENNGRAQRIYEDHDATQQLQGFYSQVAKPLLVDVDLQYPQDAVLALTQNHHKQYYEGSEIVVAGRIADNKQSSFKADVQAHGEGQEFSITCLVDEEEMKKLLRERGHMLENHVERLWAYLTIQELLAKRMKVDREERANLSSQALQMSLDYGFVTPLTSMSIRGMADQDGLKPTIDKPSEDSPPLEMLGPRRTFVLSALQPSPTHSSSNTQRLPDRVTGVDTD

| SMILES | N (Link_TSG6 [1]; Table 4, ITC) | ΔG (Link_TSG6 [1]; Table 4, ITC) [kcal/mol] | ΔH (Link_TSG6 [1]; Table 4, ITC) [kcal/mol] | −TΔS (Link_TSG6 [1]; Table 4, ITC) [kcal•mol^a1] | Kd (Link_TSG6 [1]; Table 4, ITC) [µM] | % Binding affinity Link_TSG6 (Link_TSG6 [1]) [%] | % of binding to hisCD44_HABD^20–169 compared to the unmodified oligosaccharide of the same length (hisCD44_HABD^20–169; MST) [%] | % HAx^AN: percentage of binding affinity (KB) compared to the unmodified oligosaccharide of the same length (hisCD44_HABD^20–169; Table 5, MST) [%] | Kd (hisCD44_HABD^20–169; [3]) [µM] | % Binding affinity hisCD44_HABD^20–169 (hisCD44_HABD^20–169) [%] | Substrate for HC transfer (recombinant human TSG-6) | also measured |
| --- | --- | --- | --- | --- | --- | --- | --- | --- | --- | --- | --- | --- |
| CC(=O)N[C@H]1[C@H](O[C@H]2[C@H](O)[C@@H](O)[C@H](O[C@H]3[C@H](O)[C@@H](CO)O[C@@H](O[C@H]4[C@H](O)[C@@H](O)[C@H](O[C@H]5[C@H](O)[C@@H](CO)O[C@@H](O[C@H]6[C@H](O)[C@@H](O)[C@H](O[C@@H]([C@H](O)[C@H](O)CO)[C@H](CNc7cccc8c7CCC8)NC(C)=O)O[C@@H]6C(=O)O)[C@@H]5NC(C)=O)O[C@@H]4C(=O)O)[C@@H]3NC(C)=O)O[C@@H]2C(=O)O)O[C@H](CO)[C@@H](O)[C@@H]1O[C@@H]1O[C@H](C(=O)O)[C@@H](O)[C@H](O)[C@H]1O [HA8-4AI] | 1.01 ± 0.02 | -9.15 ± 0.16 | -7.02 ± 0.40 | −2.13 ± 0.53 | 0.22 ± 0.05 | 141 | 37 | 37 | 139 ± 43 | 37 | Yes | – |
| CC(=O)N[C@H]1[C@H](O[C@H]2[C@H](O)[C@@H](O)[C@H](O[C@H]3[C@H](O)[C@@H](CO)O[C@@H](O[C@H]4[C@H](O)[C@@H](O)[C@H](O[C@H]5[C@H](O)[C@@H](CO)O[C@@H](O[C@H]6[C@H](O)[C@@H](O)[C@H](O[C@@H]([C@H](O)[C@H](O)CO)[C@H](CNc7ccc8c(c7)CCC8)NC(C)=O)O[C@@H]6C(=O)O)[C@@H]5NC(C)=O)O[C@@H]4C(=O)O)[C@@H]3NC(C)=O)O[C@@H]2C(=O)O)O[C@H](CO)[C@@H](O)[C@@H]1O[C@@H]1O[C@H](C(=O)O)[C@@H](O)[C@H](O)[C@H]1O [HA8-5AI] | 0.97 ± 0.02 | -9.34 ± 0.11 | -7.43 ± 0.25 | −1.91 ± 0.33 | 0.15 ± 0.03 | 207 | 96 | 96 | 54 ± 10 | 96 | Yes | % of binding to Link_TSG6 compared to the unmodified oligosaccharide of the same length (Link_TSG6 [1]; ITC): 207% |
| CC(=O)N[C@H]1[C@H](O[C@H]2[C@H](O)[C@@H](O)[C@H](O[C@H]3[C@H](O)[C@@H](CO)O[C@@H](O[C@H]4[C@H](O)[C@@H](O)[C@H](O[C@H]5[C@H](O)[C@@H](CO)O[C@@H](O[C@H]6[C@H](O)[C@@H](O)[C@H](O[C@H]7[C@H](O)[C@@H](CO)OC(O)[C@@H]7NC(C)=O)O[C@@H]6C(=O)O)[C@@H]5NC(C)=O)O[C@@H]4C(=O)O)[C@@H]3NC(C)=O)O[C@@H]2C(=O)O)O[C@H](CO)[C@@H](O)[C@@H]1O[C@@H]1O[C@H](C(=O)O)[C@@H](O)[C@H](O)[C@H]1O (stereo partly drawn) [HA8^AN, reference compound] | – | – | – | −1.63 ± 0.24 | – | 100 | – | 100 | 51 ± 5 | 100 | Yes | N (Link_TSG6 [1]; Table 1, ITC): 0.98 ± 0.01; ΔG (Link_TSG6 [1]; Table 1, ITC): -8.89 ± 0.03 kcal/mol; ΔH (Link_TSG6 [1]; Table 1, ITC): -7.26 ± 0.20 kcal/mol; −TΔS (Link_TSG6 [1]; Table 1, ITC): -1.63 ± 0.24 kcal/mol; Kd (Link_TSG6 [1]; Table 1, ITC): 0.31 ± 0.02 µM; Kd (hisCD44_HABD^20–169; MST, read-out: KD for hisCD44_HABD^20–169): ~50 µM; % HAn^AN: percentage of binding affinity (KB) compared to the unmodified oligosaccharide of the same length (hisCD44_HABD^20–169; Table 2, MST): 100%; Kd (hisCD44_HABD^20–169; Table 2, MST, 10 mM Hepes pH 7.5, 150 mM NaCl, 0.05% Tween-20, 25 °C, mean (±SD), three titrations, read-out: KD): 51 µM; Activity as substrate for HC transfer (text) (recombinant human TSG-6; Western blot anti-HC1): acted as substrates; Fold greater affinity for Link_TSG6 (compared to HA8^AN) (Link_TSG6 [2]): 1.9 fold |
